Experimental data reported in patent publication US20210322297A9, “COSMETIC COMPOSITIONS FOR PROTECTION AGAINST LIGHT-INDUCED DAMAGES” (priority 2018, published 2021).
Several values for one entry are separate records, joined by “and”; a condition that tells them apart may be missing. Equal entries are not always repeated.

Test system: Human keratinocytes (HaCAT)
Experiment: Carbonyl Score analysis: blue light (460 nm)-induced protein oxidative damage (carbonylation)
Type: cell-based
From the text: Human keratinocytes (HaCAT) were irradiated in the presence or absence of a composition (C-1) comprising equal weight amounts of extracts (Q), (GS) and (GT) (VitakeloxTM) using an irradiation system available from OxiProteomics®. A solution of N-acetyl-cysteine was used as positive control of protection. Just after irradiation, proteins were extracted from the cells and analyzed. Carbonylated proteins were labeled with specific functionalized fluorescent probes and the resulting samples were resolved by high-resolution electrophoresis. Total proteins were post-stained with SyproTM Ruby protein gel stain. A Carbonyl (protein damage) Score was obtained for each sample after normalization of the fluorescent signal for carbonylated proteins by total proteins. A significant increase in protein oxidative damage was observed upon blue light irradiation. This increase was prevented in the presence of composition (C-1) at two different concentrations (0.01% and 0.005% w/v) and with two times of treatment (6 hours and 24 hours). HaCaT cells were cultured in calcium-free DMEM (Dulbecco's Modified Eagle Medium), with 10% SVF […], at 37° C. and humid atmosphere, supplemented with 5% CO2. Cells were seeded (500.000 cells/well) at day 0 (D0) in multi-well plates containing culture medium and distributed in 8 experimental groups as depicted in Table 1. On day 1 (D1), two solutions of composition (C-1) having two different concentrations (0.01% and 0.005%) were prepared by solubilisation of the composition in the culture medium. Experimental groups 4 and 6 were incubated for 24 hours (t2) with the solutions prior to irradiation. At day 2 (D2), experimental groups 3 and 5 were incubated for 6 hours (t1) prior to blue light irradiation. Groups 7 and 8 were incubated with a solution of NAC (N-acetyl-cysteine) for 6 and 24 hours. On day 2 (D2), the cells were washed and a stress was induced by irradiation with Blue Light (LED source, emission peak at λ=460 nm), using an OxiProteomics® irradiation system. Group 1 was not irradiated. Just after irradiation, cells were collected, snap-frozen and stored at -80° C. for the analysis. Proteins were extracted from cells, quantified by the Bradford method and split into equal amounts for analyses. […] After extraction and solubilisation, proteins in samples were quantified by the Bradford method using calibrated BSA (bovine serum albumin) as standard (Bradford M. Anal. Biochem., 72, 248, 1976). […] Proteins were fixed to the gel and the carbonylated proteins were evidenced by fluorescence scanning. […] Quantification was obtained from each sample, both for carbonylated and total proteins. […]

CC(=O)N[C@@H](CS)C(=O)O [NAC, N-acetyl-cysteine]
Carbonyl Score (NAC 6 h incubation before blue light irradiation, group G-7, carbonylated signal normalized by total protein signal): 0.734 and 0.742 and 0.657 | Oxidized proteins (NAC 6 h incubation before blue light irradiation, group G-7, densitometric signal per replicate): 12101.36 and 11379.65 and 10415.94 | Carbonyl Score (NAC 24 h incubation before blue light irradiation, group G-8, carbonylated signal normalized by total protein signal): 0.639 and 0.700 and 0.631 | Oxidized proteins (NAC 24 h incubation before blue light irradiation, group G-8, densitometric signal per replicate): 9126.82 and 11501.94 and 10859.53
